Numbers after ± are expanded uncertainties.
How the values were obtained:
[1] = Molar enthalpy of transition or fusion; settings: Crystal
[2] = molar heat capacity at saturation pressure

Cc1cccc2cccnc12 [8-methylquinoline]
Settings | mass density [kg/m3] | molar heat capacity [J/K/mol] | vapor or sublimation pressure [kPa]
315.61 K, Liquid, Inclined piston gauge | – | – | 0.0242 ± 0.001
324.98 K, Liquid, Inclined piston gauge | – | – | 0.0466 ± 0.0011
334.99 K, Liquid, Inclined piston gauge | – | – | 0.0905 ± 0.0011
344.98 K, Liquid, Inclined piston gauge | – | – | 0.1674 ± 0.0012
354.98 K, Liquid, Inclined piston gauge | – | – | 0.2975 ± 0.0013
364.98 K, Liquid, Inclined piston gauge | – | – | 0.5091 ± 0.0016
374.98 K, Liquid, Inclined piston gauge | – | – | 0.8418 ± 0.002
384.98 K, Liquid, Inclined piston gauge | – | – | 1.35 ± 0.0027
393.84 K, Liquid, Twin ebulliometer | – | – | 2.001 ± 0.01
394.97 K, Liquid, Inclined piston gauge | – | – | 2.102 ± 0.0036
400.6 K, Liquid, Twin ebulliometer | – | – | 2.665 ± 0.01
404.97 K, Liquid, Inclined piston gauge | – | – | 3.19 ± 0.0047
410.7 K, Liquid, Twin ebulliometer | – | – | 4.004 ± 0.011
418.2 K, Liquid, Twin ebulliometer | – | – | 5.336 ± 0.011
429.38 K, Liquid, Twin ebulliometer | – | – | 8.002 ± 0.012
437.77 K, Liquid, Twin ebulliometer | – | – | 10.67 ± 0.013
444.5 K, Liquid, Twin ebulliometer | – | – | 13.31 ± 0.014
451.61 K, Liquid, Twin ebulliometer | – | – | 16.67 ± 0.015
457.46 K, Liquid, Twin ebulliometer | – | – | 19.93 ± 0.017
465.16 K, Liquid, Twin ebulliometer | – | – | 25.02 ± 0.019
465.17 K, Liquid, Twin ebulliometer | – | – | 25.02 ± 0.019
472.94 K, Liquid, Twin ebulliometer | – | – | 31.18 ± 0.021
480.74 K, Liquid, Twin ebulliometer | – | – | 38.57 ± 0.024
488.6 K, Liquid, Twin ebulliometer | – | – | 47.36 ± 0.028
496.51 K, Liquid, Twin ebulliometer | – | – | 57.8 ± 0.032
504.49 K, Liquid, Twin ebulliometer | – | – | 70.12 ± 0.037
512.5 K, Liquid, Twin ebulliometer | – | – | 84.53 ± 0.043
520.56 K, Liquid, Twin ebulliometer | – | – | 101.31 ± 0.049
528.68 K, Liquid, Twin ebulliometer | – | – | 120.8 ± 0.06
536.85 K, Liquid, Twin ebulliometer | – | – | 143.23 ± 0.06
545.06 K, Liquid, Twin ebulliometer | – | – | 169 ± 0.07
553.32 K, Liquid, Twin ebulliometer | – | – | 198.45 ± 0.08
553.33 K, Liquid, Twin ebulliometer | – | – | 198.45 ± 0.08
561.65 K, Liquid, Twin ebulliometer | – | – | 232 ± 0.09
570.01 K, Liquid, Twin ebulliometer | – | – | 270 ± 0.1
769.9 K, Gas, Measured as part of TC determination by DSC | 160.5 ± 16 | – | –
775.8 K, Liquid, Measured as part of TC determination by DSC | 444.6 ± 44 | – | –
784 K, Gas, Measured as part of TC determination by DSC | 244.7 ± 25 | – | –
785.1 K, Liquid, Measured as part of TC determination by DSC | 349.8 ± 35 | – | –
786 K, Gas, Measured as part of TC determination by DSC | 318.7 ± 32 | – | –
[2], 460 K, Liquid | – | 289.36 ± 2.9 | –
[2], 480 K, Liquid | – | 297.35 ± 3 | –
[2], 500 K, Liquid | – | 305.31 ± 3.1 | –
[2], 520 K, Liquid | – | 313.17 ± 3.1 | –
[2], 540 K, Liquid | – | 320.92 ± 3.2 | –
[2], 560 K, Liquid | – | 328.51 ± 3.3 | –
[2], 580 K, Liquid | – | 335.9 ± 3.4 | –
[2], 600 K, Liquid | – | 343.02 ± 3.4 | –
[2], 620 K, Liquid | – | 349.87 ± 3.5 | –
[2], 640 K, Liquid | – | 356.47 ± 3.6 | –
[2], 660 K, Liquid | – | 362.89 ± 3.6 | –
[2], 680 K, Liquid | – | 369.38 ± 3.7 | –
[2], 700 K, Liquid | – | 376.44 ± 3.8 | –

Settings | Critical temperature, Liquid [K] | mass density, 323.14 K [kg/m3] | mass density, 348.13 K [kg/m3] | mass density, 373.12 K [kg/m3] | mass density, 398.12 K [kg/m3] | mass density, 423.11 K [kg/m3] | mass density, 448.11 K [kg/m3] | mass density, 473.11 K [kg/m3] | mass density, 498.11 K [kg/m3]
DTA | 787 ± 2 | – | – | – | – | – | – | – | –
Liquid | – | 1049.3 ± 0.5 | 1029 ± 0.5 | 1009.5 ± 0.4 | 988.5 ± 0.4 | 967.8 ± 0.5 | 947.5 ± 0.6 | 926.6 ± 0.8 | 904 ± 1

Settings | Molar enthalpy of transition or fusion [kJ/mol] | Triple point temperature [K]
Crystal | – | 246.94 ± 0.05
[1] | 10.73 ± 0.013 | –

molar heat capacity [J/K/mol], [2], Vacuum adiabatic calorimetry
Settings | Crystal | Liquid
5 K | 0.45 ± 0.02 | –
6.105 K | 0.81 ± 0.02 | –
7.027 K | 1.26 ± 0.02 | –
8.004 K | 1.86 ± 0.03 | –
9.004 K | 2.64 ± 0.03 | –
10 K | 3.53 ± 0.04 | –
10.06 K | 3.58 ± 0.04 | –
11.21 K | 4.73 ± 0.05 | –
12.47 K | 6.05 ± 0.06 | –
13.87 K | 7.66 ± 0.07 | –
15.42 K | 9.47 ± 0.07 | –
17.14 K | 11.51 ± 0.083 | –
19.04 K | 13.71 ± 0.091 | –
20 K | 14.8 ± 0.091 | –
21.13 K | 16.07 ± 0.1 | –
23.44 K | 18.64 ± 0.1 | –
25.98 K | 21.32 ± 0.1 | –
28.81 K | 24.19 ± 0.1 | –
30 K | 25.37 ± 0.091 | –
31.94 K | 27.23 ± 0.1 | –
35.44 K | 30.44 ± 0.1 | –
39.36 K | 33.85 ± 0.11 | –
40 K | 34.39 ± 0.11 | –
43.73 K | 37.46 ± 0.12 | –
48.59 K | 41.21 ± 0.12 | –
50 K | 42.28 ± 0.12 | –
52.43 K | 44.08 ± 0.13 | –
53.97 K | 45.21 ± 0.13 | –
57.17 K | 47.47 ± 0.13 | –
59.94 K | 49.35 ± 0.14 | –
60 K | 49.4 ± 0.14 | –
62.72 K | 51.23 ± 0.14 | –
69 K | 55.27 ± 0.15 | –
70 K | 55.87 ± 0.15 | –
75.99 K | 59.46 ± 0.16 | –
80 K | 61.81 ± 0.17 | –
83.66 K | 63.9 ± 0.17 | –
86.44 K | 65.46 ± 0.17 | –
90 K | 67.47 ± 0.27 | –
91.89 K | 68.5 ± 0.27 | –
94.09 K | 69.68 ± 0.27 | –
100 K | 72.87 ± 0.27 | –
100.75 K | 73.28 ± 0.27 | –
103.06 K | 74.5 ± 0.27 | –
112.71 K | 79.57 ± 0.28 | –
120 K | 83.32 ± 0.28 | –
123.65 K | 85.25 ± 0.28 | –
135.63 K | 91.49 ± 0.29 | –
140 K | 93.7 ± 0.29 | –
147.53 K | 97.64 ± 0.3 | –
160 K | 104.11 ± 0.31 | –
160.44 K | 104.42 ± 0.31 | –
170 K | – | 184.91 ± 0.38
174.36 K | 111.83 ± 0.32 | –
175.64 K | 112.44 ± 0.32 | –
175.79 K | – | 185.73 ± 0.38
180 K | 114.69 ± 0.32 | 186.36 ± 0.38
181.22 K | – | 186.55 ± 0.38
186.72 K | – | 187.58 ± 0.39
186.91 K | 118.52 ± 0.32 | –
188.79 K | 119.55 ± 0.32 | –
199.75 K | 125.65 ± 0.32 | –
200 K | 125.52 ± 0.32 | 190.48 ± 0.39
203.2 K | 127.63 ± 0.32 | –
212.46 K | 132.96 ± 0.33 | –
215.19 K | 134.54 ± 0.33 | –
220 K | 136.62 ± 0.34 | 195.81 ± 0.4
224.46 K | 140.5 ± 0.34 | –
225.29 K | 140.97 ± 0.34 | –
232.54 K | – | 199.61 ± 0.4
235.37 K | 150.91 ± 0.35 | –
238.7 K | – | 201.71 ± 0.4
240 K | 147.98 ± 0.35 | 202.12 ± 0.4
245.88 K | – | 204 ± 0.41
246.94 K | 151.99 ± 0.35 | 204.38 ± 0.41
253.58 K | – | 206.7 ± 0.41
253.72 K | – | 206.81 ± 0.41
254.07 K | – | 206.89 ± 0.41
256.36 K | – | 207.75 ± 0.41
257.67 K | – | 208.16 ± 0.41
260 K | – | 208.99 ± 0.41
265.24 K | – | 210.84 ± 0.41
269.69 K | – | 212.52 ± 0.42
280 K | – | 216.4 ± 0.42
282.82 K | – | 217.48 ± 0.42
296.93 K | – | 222.97 ± 0.42
298.15 K | – | 223.45 ± 0.42
300 K | – | 224.18 ± 0.42
310.97 K | – | 228.56 ± 0.43
312.23 K | – | 229.08 ± 0.43
320 K | – | 232.22 ± 0.43
326.77 K | – | 234.98 ± 0.43
340 K | – | 240.4 ± 0.44
341.89 K | – | 241.17 ± 0.44
357.58 K | – | 247.68 ± 0.45
360 K | – | 248.69 ± 0.45
373.8 K | – | 254.38 ± 0.46
380 K | – | 256.96 ± 0.46
389.63 K | – | 260.93 ± 0.46
400 K | – | 265.18 ± 0.47
405.69 K | – | 267.5 ± 0.47
420 K | – | 273.33 ± 0.47
422.45 K | – | 274.32 ± 0.47
437.11 K | – | 280.26 ± 0.48
440 K | – | 281.4 ± 0.48
